Test systems include 786-0; A498; A549; ACHN; HOP-92; HT-29; M14; MCF7; MDA-MB-231; MOLT-4; NCI-H226; NCI-H23; NCI-H522; OVCAR-8; SF-268; SF-295; SF-539; SNB-75; SW-620; UO-31.
Common to all, as to experiment: inhibition of tumour cell growth, NCI panel, 48 h

Here are results for six compounds from ChEMBL document CHEMBL1201862, “PubChem BioAssay data set” (2004).

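Growth conditions: 96-well plates. Treatment: test compound, 48 hours, 5 concentrations. Analysis: linear interpolation between bracketing concentrations; unreached endpoints set to highest concentration. GI50 marks 50% less growth.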 Active and inactive are the calls of the source. Rule as the data show it: active = GI50 up to about 1.1 µM and inactive = higher. A value given as a limit tells only on which side of the number the result lay.

With `COc1ccc(C2C(C#N)=C(S)N(C3OC(CO)C(O)C(O)C3O)C(c3ccccc3)=C2C(C)=O)cc1` (stereo not given), the GI50 with 786-0 is 67.3 µM (inactive); in the test with A498 it was > 100 µM (inactive); with A549 it was > 100 µM (inactive); with ACHN, 83.9 µM (inactive); in the test on HOP-92 it was 46.1 µM (inactive); in the test on HT-29, 46.1 µM (inactive). Further, the GI50 was 65 µM (inactive) in the test on M14; 72.1 µM (inactive) with MCF7; 95.5 µM (inactive) in the test with MDA-MB-231; 28.1 µM (inactive) in the test with MOLT-4; > 100 µM (inactive) in the test on NCI-H226; > 100 µM (inactive) with NCI-H23. Moreover, the GI50 with NCI-H522 is 26.9 µM (inactive); in the test with OVCAR-8 it was 63.7 µM (inactive); in the test with SF-268, 45.7 µM (inactive); in the test on SF-295 it was > 100 µM (inactive); in the test with SF-539, 78.2 µM (inactive); in the test on SNB-75, 23.6 µM (inactive). Further, the GI50 in the test on SW-620 was 7.18 µM (inactive); in the test with UO-31 it was > 100 µM (inactive).
On to `C[Si](C)(C)C#Cc1cc(-c2nc3ccccc3s2)ccc1N`, for which the GI50 in the test on 786-0 is 17 µM (inactive); in the test on A498 it was 19.9 µM (inactive); in the test on A549, 19.4 µM (inactive); with ACHN, 15.7 µM (inactive); in the test with HOP-92, 11.5 µM (inactive); in the test with HT-29, 20.1 µM (inactive). The GI50 in the test on M14 is 16.5 µM (inactive); in the test with MCF7 it was 0.491 µM (active); in the test with MDA-MB-231, 17.2 µM (inactive); in the test with MOLT-4, 29.2 µM (inactive); in the test on NCI-H226, 14.4 µM (inactive); with NCI-H23 it was 18.5 µM (inactive). Further, the GI50 with NCI-H522 was 13.9 µM (inactive); with OVCAR-8, 16.7 µM (inactive); in the test with SF-268 it was 16.8 µM (inactive); in the test on SF-295, 18.6 µM (inactive); in the test with SF-539, 18.7 µM (inactive); in the test with SNB-75, 12.7 µM (inactive). The GI50 in the test on SW-620 is 18.1 µM (inactive); with UO-31, 13.4 µM (inactive).
Consider `O=C(NC(=O)c1ccccc1[N+](=O)[O-])Nc1ccc(Oc2ncc(Br)cn2)c(Cl)c1`, for which the GI50 in the test with 786-0 is 0.0215 µM (active); in the test on A498 it was 0.0225 µM (active); with A549, 0.0428 µM (active); in the test with ACHN, 0.0508 µM (active); with HOP-92, 0.0495 µM (active); with HT-29, 0.0175 µM (active). Besides, the GI50 is < 0.016 µM (active) with M14; 0.0265 µM (active) in the test on MCF7; 0.0469 µM (active) in the test on MDA-MB-231; 0.033 µM (active) in the test on MOLT-4; 0.0148 µM (active) with NCI-H226; 0.0389 µM (active) in the test with NCI-H23. Besides, the GI50 with NCI-H522 is 0.0131 µM (active); with OVCAR-8, 0.0301 µM (active); in the test on SF-268, 0.0478 µM (active); with SF-295 it was 0.0137 µM (active); in the test with SF-539, 0.0203 µM (active); in the test on SNB-75, 0.0231 µM (active). Moreover, the GI50 with SW-620 is 0.0237 µM (active); in the test with UO-31 it was 0.0281 µM (active).
As to `C[N+]1(C)C/C(=C\C=C\c2ccccc2)C(=O)/C(=C/C=C/c2ccccc2)C1`, the GI50 in the test on 786-0 is 17.8 µM (inactive); with A498, 60.1 µM (inactive); in the test on A549, 39.8 µM (inactive); in the test with ACHN, 49.7 µM (inactive); with HOP-92 it was 17.9 µM (inactive); in the test on HT-29, 9.53 µM (inactive). In addition, the GI50 with M14 is 16.3 µM (inactive); with MCF7, 10.2 µM (inactive); with MDA-MB-231, 10.4 µM (inactive); in the test with MOLT-4, 4.06 µM (inactive); in the test on NCI-H226 it was 22.3 µM (inactive); in the test on NCI-H23 it was 9.71 µM (inactive). Besides, the GI50 in the test on NCI-H522 is 3.78 µM (inactive); in the test on OVCAR-8 it was 14.5 µM (inactive); in the test with SF-268 it was 4.97 µM (inactive); in the test with SF-295 it was 23.8 µM (inactive); with SF-539 it was 7.55 µM (inactive); in the test with SNB-75, 6.73 µM (inactive). The GI50 in the test on SW-620 was 9.79 µM (inactive); in the test on UO-31, 85.5 µM (inactive).
As to `O=C(/C=C/c1ccccc1)CSc1nc2ccc(I)cc2c(=O)n1Cc1ccccc1`, the GI50 is 14.5 µM (inactive) in the test with 786-0; 14.3 µM (inactive) in the test on A498; 39.9 µM (inactive) in the test with A549; 7.64 µM (inactive) in the test with ACHN; 5.55 µM (inactive) in the test with HOP-92; 26.3 µM (inactive) in the test with HT-29. The GI50 in the test on M14 is 55.1 µM (inactive); in the test with MCF7, 28.6 µM (inactive); in the test with MDA-MB-231 it was 28.9 µM (inactive); in the test on MOLT-4, 9.82 µM (inactive); with NCI-H226, 12.7 µM (inactive); in the test on NCI-H23, 18.1 µM (inactive). Further, the GI50 in the test on NCI-H522 was 12.3 µM (inactive); in the test on OVCAR-8 it was 25.5 µM (inactive); in the test with SF-268, 14.8 µM (inactive); with SF-295, 14 µM (inactive); in the test on SF-539, 39.9 µM (inactive); in the test with SNB-75 it was 29.8 µM (inactive). Moreover, the results for the GI50 with SW-620 and with UO-31 were 38.6 µM (inactive) and 0.13 µM (active), respectively.
Regarding `COc1ccc(C(O)/C(=N/N)c2nc3ccc(Cl)cc3nc2O)cc1` (stereo not given), the GI50 was > 100 µM (inactive) in the test with 786-0; > 100 µM (inactive) with A498; > 100 µM (inactive) in the test with A549; > 100 µM (inactive) in the test with ACHN; 63.4 µM (inactive) with HOP-92; > 100 µM (inactive) in the test on HT-29. Also, the GI50 is > 100 µM (inactive) in the test on M14; 62.7 µM (inactive) in the test with MCF7; > 100 µM (inactive) with MDA-MB-231; > 100 µM (inactive) in the test on MOLT-4; > 100 µM (inactive) in the test on NCI-H226; > 100 µM (inactive) in the test with NCI-H23. In addition, the GI50 with NCI-H522, in the test on OVCAR-8, in the test with SF-268, in the test on SF-295, with SF-539 and in the test on SNB-75 was > 100 µM (inactive) each time. The GI50 with SW-620 and in the test on UO-31 was > 100 µM (inactive) throughout.
